Assay results taken from ChEMBL document CHEMBL3132846 (Medchemcomm, 2014).
The source made the active and inactive calls. The rule behind the calls is not given here.

Columns and labels:
[1] = Cytotoxicity against human NCI-460 cells after 48 hrs by MTT assay; type: functional, cell-based; settings: NCI-460, 48 h
[2] = Cytotoxicity against human BGC823 cells after 48 hrs by MTT assay; type: functional, cell-based; settings: BGC-823, 48 h
SiHa = assay: Cytotoxicity against human SiHa cells after 48 hrs by MTT assay; type: functional, cell-based
HeLa = assay: Cytotoxicity against human HeLa cells after 48 hrs by MTT assay; type: functional, cell-based
[3] = Cytotoxicity against human JeKo1 cells after 48 hrs by MTT assay; type: functional, cell-based; settings: JeKo-1, 48 h
[4] = Cytotoxicity against human SKBR3 cells after 48 hrs by MTT assay; type: functional, cell-based; settings: SK-BR-3, 48 h
[5] = Cytotoxicity against human Bel7402 cells after 48 hrs by MTT assay; type: functional, cell-based; settings: Bel-7402, 48 h
A549 = assay: Cytotoxicity against human A549 cells after 48 hrs by MTT assay; type: functional, cell-based; settings: A549, 48 h
BeWo = assay: Cytotoxicity against human Bewo cells after 48 hrs by MTT assay; type: functional, cell-based
MCF7 = assay: Cytotoxicity against human MCF7 cells after 48 hrs by MTT assay; type: functional, cell-based; settings: MCF7, 48 h
Ishikawa = assay: Cytotoxicity against human Ishikawa cells after 48 hrs by MTT assay; type: functional, cell-based
HL-60 = assay: Cytotoxicity against human HL60 cells after 48 hrs by MTT assay; type: functional, cell-based; settings: HL-60, 48 h
HUVEC [6] = assay: Antiangiogenic activity against HUVEC assessed as inhibition of cell migration at 10 ug/ml after 24 hrs by wound healing assay relative to control; type: functional; settings: Homo sapiens
CCRF S-180 = assay: Antitumor activity against mouse S180 cells allografted in ICR mouse assessed as tumor growth inhibition at 200 mg/kg, ig qd administered for 6 days relative to vehicle-treated control; type: functional; settings: CCRF S-180, po, 144 h, route intragastric, read-out: TGI
HUVEC [7] = assay: Cytotoxicity against HUVEC assessed as mitochondrial metabolism after 48 hrs by MTT assay; type: cell-based, Homo sapiens; settings: for IC50: Homo sapiens, HUVEC
Mus musculus = assay: Toxicity in ICR mouse allografted with mouse S180 cells assessed as body weight loss at 200 mg/kg, ig qd administered for 6 days relative to vehicle-treated control; type: organism-based, CCRF S-180; design: dose 200 mg/kg, route intragastric; settings: in vivo, po, 144 h
HUVEC [8] = assay: Antiangiogenic activity against HUVEC assessed as inhibition of cell migration at 2.5 ug/ml after 24 hrs by wound healing assay relative to control; type: functional; settings: Homo sapiens
HUVEC [9] = assay: Antiangiogenic activity against HUVEC assessed as inhibition of tube formation at 12.5 ug/ml after 24 hrs relative to control; type: functional, cell-based; settings: Homo sapiens

SMILES	IC50 [1]	IC50 [2]	IC50 (SiHa)	IC50 (HeLa)	IC50 [3]	IC50 [4]	IC50 [5]	IC50 (A549)	IC50 (BeWo)	IC50 (MCF7)	IC50 (Ishikawa)	IC50 (HL-60)	inhibition at 10 µg/mL (HUVEC [6])	inhibition in vivo at 200 mg/kg (CCRF S-180)	IC50 (HUVEC [7])	Activity (HUVEC [7]; human, huvec)	Activity (Mus musculus)	inhibition at 2.5 µg/mL (HUVEC [8])	Activity (HUVEC [9])
C#CCOC(=O)Cc1cccc2c(=O)c3ccc(C)c(C)c3oc12	> 100 µM	81.5 µM	> 100 µM	> 100 µM	> 10 µg/mL	> 10 µg/mL	> 100 µM	> 100 µM	> 100 µM	> 100 µM	> 100 µM	> 100 µM							
CCOC(=O)CNC(=O)Cc1cccc2c(=O)c3ccc(C)c(C)c3oc12			> 100 µM	> 100 µM				42.9 µM	> 100 µM	46.4 µM	61.9 µM	> 100 µM							
CCC/C=C/C(=O)NNC(=O)Cc1cccc2c(=O)c3ccc(C)c(C)c3oc12					> 10 µg/mL	> 10 µg/mL													
Cc1ccc2c(=O)c3cccc(CC(=O)Nc4ccc(Cl)cc4)c3oc2c1C			46.6 µM	> 100 µM				9.39 µM	32 µM	> 100 µM	> 100 µM	67.6 µM	65.8%	27.8%	6.87 µM	Dose-dependent effect	12.37%	45.6%	Active
COc1cc(/C=N/NC(=O)Cc2cccc3c(=O)c4ccc(C)c(C)c4oc23)cc(OC)c1OC			> 100 µM	> 100 µM				15.7 µM	> 100 µM	> 100 µM	> 100 µM	> 100 µM							
Cc1ccc2c(=O)c3cccc(CC(=O)N/N=C/c4ccccc4O)c3oc2c1C	> 100 µM	> 100 µM	> 100 µM	> 100 µM	> 10 µg/mL	> 10 µg/mL	> 100 µM	21.4 µM	67.2 µM	> 100 µM	> 100 µM	52.8 µM							
CCOC(=O)Cc1cccc2c(=O)c3ccc(C)c(C)c3oc12														4.04%			8.5%		
CCOC(=O)CCNC(=O)Cc1cccc2c(=O)c3ccc(C)c(C)c3oc12	> 100 µM	76.4 µM	98 µM	> 100 µM			> 100 µM	35 µM	26.2 µM	40.6 µM	> 100 µM	79.9 µM							
Cc1ccc2c(=O)c3cccc(CC(=O)Nc4ccc([N+](=O)[O-])c(C(F)(F)F)c4)c3oc2c1C			63.2 µM	> 100 µM				> 100 µM	> 100 µM	> 100 µM	> 100 µM	93.8 µM							
COc1ccc(/C=N/NC(=O)Cc2cccc3c(=O)c4ccc(C)c(C)c4oc23)cc1O	> 100 µM	> 100 µM	> 100 µM	> 100 µM			> 100 µM	54.9 µM	> 100 µM	> 100 µM	> 100 µM	> 100 µM							
COc1cc(/C=N/NC(=O)Cc2cccc3c(=O)c4ccc(C)c(C)c4oc23)ccc1O								> 100 µM											
Cc1ccc2c(=O)c3cccc(CC(=O)Nc4ccccc4)c3oc2c1C	> 100 µM	> 100 µM	> 100 µM	> 100 µM			> 100 µM	77.6 µM	> 100 µM	> 100 µM	> 100 µM	4.59 µM		18.4%	> 20 µM		10.2%		
CCOC(=O)c1ccc(NC(=O)Cc2cccc3c(=O)c4ccc(C)c(C)c4oc23)cc1	> 100 µM	> 100 µM	> 100 µM	> 100 µM			> 100 µM	39.6 µM	45.5 µM	> 100 µM	> 100 µM	90.9 µM							
Cc1ccc2c(=O)c3cccc(CC(=O)Nc4ccc(Cl)cn4)c3oc2c1C			> 100 µM	> 100 µM				> 100 µM	> 100 µM	95.9 µM	> 100 µM	80.9 µM							
CCCCNC(=O)Cc1cccc2c(=O)c3ccc(C)c(C)c3oc12			> 100 µM	> 100 µM				46.9 µM	> 100 µM	43.8 µM	> 100 µM	44.7 µM							
